Results reported in EPA's ToxRefDB 2.

Tests used:
[1] = system: rabbit; settings: Prenatal developmental toxicity study, new zealand white, Oral, Gavage/Intubation, dose end: 18 GD
[2] = system: rat; settings: Prenatal developmental toxicity study, sprague dawley, Oral, Gavage/Intubation, dose end: 15 GD
[3] = system: rat; settings: Prenatal developmental toxicity study, sprague dawley, Inhalation, Whole-Body, dose end: 15 GD
[4] = system: rabbit; settings: Prenatal developmental toxicity study, new zealand white, Inhalation, Whole-Body, dose end: 18 GD
[5] = system: rabbit; settings: Prenatal developmental toxicity study, dutch, Inhalation, Whole-Body, dose end: 18 GD
[6] = system: rat; settings: Prenatal developmental toxicity study, sprague dawley, Inhalation, Whole-Body, dose end: 15 GD; remark: listed apart in the source
[7] = system: rat; settings: Prenatal developmental toxicity study, fischer, Inhalation, Whole-Body, dose end: 15 GD
[8] = system: rat; settings: Prenatal developmental toxicity study; wistar; Inhalation; Whole-Body; dose end: 20 GD; group: developmental; developmental / developmental malformation / heart / dilatation
[9] = system: rabbit; settings: Prenatal developmental toxicity study; himalayan; Inhalation; Whole-Body; dose end: 29 GD; group: developmental; developmental / developmental malformation / heart / adhesions + developmental / developmental malformation / kidney / dilatation
[10] = system: rat; settings: Multigenerational reproductive toxicity study, wistar, Oral, Feed, dose end: 2 generation
[11] = system: rat; settings: Prenatal developmental toxicity study, sprague dawley, Oral, Gavage/Intubation, dose end: 20 GD
[12] = system: rabbit; settings: Prenatal developmental toxicity study, new zealand white, Oral, Gavage/Intubation, dose end: 28 GD
[13] = system: rat; settings: Combined chronic toxicity/carcinogenicity, fischer, Oral, Feed, dose end: 24 month
[14] = system: mouse; settings: Carcinogenicity, cd1, Oral, Feed, dose end: 90 week
[15] = system: dog; settings: Chronic toxicity, beagle, Oral, Feed, dose end: 52 week
[16] = system: mouse; settings: Multigenerational reproductive toxicity study, cd1, Oral, Water, dose end: 2 generation
[17] = group: developmental, developmental / developmental malformation / bone / full supernumerary
[18] = group: maternal, systemic / in life observation / body weight / body weight gain + systemic / in life observation / food consumption / food consumption
[19] = group: maternal, systemic / in life observation / body weight / body weight gain + systemic / in life observation / food consumption / food consumption + …
[20] = group: developmental, developmental / developmental malformation / bone / bent + developmental / developmental malformation / bone / full supernumerary + …
[21] = group: maternal, systemic / in life observation / body weight / body weight gain
[22] = group: maternal, systemic / in life observation / body weight / body weight gain + systemic / in life observation / clinical signs / urine staining - …
[23] = group: developmental, developmental / developmental malformation / bone / wavy + developmental / developmental malformation / general / [other] + developmental / …
[24] = group: developmental, developmental / developmental malformation / general / [other] + systemic / in life observation / body weight / fetal weight
[25] = group: maternal, reproductive / reproductive performance / resorptions / resorptions
[26] = group: developmental, developmental / developmental malformation / bone / [other] + developmental / developmental malformation / bone / absent + developmental / …
[27] = group: maternal, reproductive / reproductive performance / estrous cycle / corpora lutea + reproductive / reproductive performance / implantations / …
[28] = group: developmental, developmental / developmental malformation / bone / delayed ossification + developmental / developmental malformation / bone / misaligned + …
[29] = group: maternal, reproductive / reproductive performance / postimplantation loss / postimplantation loss + systemic / hematology / hemoglobin (hgb) / …
[30] = group: developmental, developmental / developmental malformation / bone / [other] + developmental / developmental malformation / bone / fused + developmental / …
[31] = group: developmental, developmental / developmental malformation / bone / [other] + developmental / developmental malformation / heart / [other] + systemic / in …
[32] = group: developmental, developmental / developmental malformation / bone / [other] + developmental / developmental malformation / bone / bipartite ossification + …
[33] = group: developmental, developmental / developmental malformation / bone / incomplete ossification + developmental / developmental malformation / bone / unossified
[34] = group: maternal, reproductive / reproductive performance / implantations / implantations + systemic / hematology / erythrocyte (rbc) count differential / …
[35] = group: maternal, systemic / organ weight / liver / absolute
[36] = group: offspring, developmental / offspring survival late / viability index / viability index + systemic / in life observation / body weight / offspring (pup…
[37] = group: parental, systemic / pathology microscopic / thyroid gland / colloid content
[38] = group: parental, systemic / pathology microscopic / thyroid gland / colloid content + systemic / organ weight / thyroid gland / absolute + systemic / organ …
[39] = group: developmental, developmental / developmental malformation / bone / incomplete ossification + developmental / developmental malformation / bone / short + …
[40] = group: maternal, systemic / in life observation / body weight / body weight gain + systemic / in life observation / clinical signs / salivation + systemic / …
[41] = group: developmental, developmental / developmental malformation / bone / [other] + developmental / developmental malformation / bone / extra ossification site + …
[42] = group: cholinesterase, cholinesterase / cholinesterase / cholinesterase / plasma cholinesterase (che)
[43] = group: systemic, systemic / clinical chemistry / alanine aminotransferase (alt/sgpt) / alanine aminotransferase (alt/sgpt) + systemic / clinical chemistry / …
[44] = group: cholinesterase, cholinesterase / cholinesterase / cholinesterase / brain cholinesterase (che) + cholinesterase / cholinesterase / cholinesterase / …
[45] = group: systemic, systemic / hematology / mean corpuscular (cell) volume (mcv) / mean corpuscular (cell) volume (mcv) + systemic / hematology / mean …
[46] = group: cholinesterase, cholinesterase / cholinesterase / cholinesterase / plasma cholinesterase (che) + cholinesterase / cholinesterase / cholinesterase / …
[47] = group: systemic, systemic / hematology / erythrocyte (rbc) count differential / erythrocyte (rbc) + systemic / hematology / hematocrit (hct) / hematocrit (…
[48] = group: offspring, systemic / in life observation / body weight / offspring (pup) weight
[49] = group: parental, systemic / organ weight / kidney / relative to body weight + systemic / organ weight / epididymis / relative to body weight + systemic / …

## O=C(O)COc1ccc(Cl)cc1Cl.OCCNCCO [2,4-Dichlorophenoxyacetic acid diethanolamine]
[1]; [17]
  LEL: 60 mg/kg/day
  LOAEL: > 60 mg/kg/day
  NEL: 30 mg/kg/day
  NOAEL: ≥ 60 mg/kg/day
[1]; [18]
  LEL: 30 mg/kg/day
  LOAEL: 30 mg/kg/day
[1]; [19]
  NEL: 15 mg/kg/day
  NOAEL: 15 mg/kg/day
[2]; [20]
  LEL: 75 mg/kg/day
  LOAEL: 75 mg/kg/day
  NEL: 15 mg/kg/day
  NOAEL: 15 mg/kg/day
[2]; [21]
  LEL: 75 mg/kg/day
  LOAEL: 75 mg/kg/day
[2]; [22]
  NEL: 15 mg/kg/day
  NOAEL: 15 mg/kg/day

## CCOCCOC(C)=O [2-Ethoxyethyl acetate]
[3]; [23]
  LOAEL: > 600 ppm
  NOAEL: ≥ 600 ppm
[3]; [24]
  LEL: 130 ppm
  NEL: < 130 ppm
[3]; [25]
  LEL: 390 ppm
  LOAEL: > 600 ppm
  NEL: 130 ppm
  NOAEL: ≥ 600 ppm
[4]; [26]
  LOAEL: > 300 ppm
  NEL: 50 ppm
  NOAEL: ≥ 300 ppm
[4]; group: developmental, developmental / developmental malformation / bone / incomplete ossification + developmental / developmental malformation / bone / misshapen…
  LEL: 100 ppm
[4]; [27]
  LOAEL: > 300 ppm
  NEL: 50 ppm
  NOAEL: ≥ 300 ppm
[4]; group: maternal, systemic / hematology / platelet / platelet + systemic / in life observation / body weight / body weight gain + systemic / in life …
  LEL: 100 ppm
[5]; [28]
  LOAEL: > 400 ppm
  NEL: 25 ppm
  NOAEL: ≥ 400 ppm
[5]; group: developmental, developmental / developmental malformation / bone / delayed ossification + developmental / developmental malformation / spleen / pale + …
  LEL: 100 ppm
[5]; [29]
  LEL: 400 ppm
  LOAEL: > 400 ppm
  NEL: 100 ppm
  NOAEL: ≥ 400 ppm
[6]; [30]
  LOAEL: > 600 mg/kg/day
  NOAEL: ≥ 600 mg/kg/day
[6]; [31]
  LEL: 130 mg/kg/day
  NEL: < 130 mg/kg/day
[6]; [25]
  LEL: 390 mg/kg/day
  LOAEL: > 600 mg/kg/day
  NEL: 130 mg/kg/day
  NOAEL: ≥ 600 mg/kg/day
[7]; [32]
  LOAEL: > 300 ppm
  NOAEL: ≥ 300 ppm
[7]; [33]
  LEL: 50 ppm
  NEL: < 50 ppm
[7]; [34]
  LOAEL: > 300 ppm
  NOAEL: ≥ 300 ppm
[7]; [35]
  LEL: 50 ppm
  NEL: < 50 ppm

## CC(C)CO [2-Methyl-1-propanol]
[8]
  LEL: 10 ppm
  LOAEL: > 10 ppm
  NEL: 2.5 ppm
  NOAEL: ≥ 10 ppm
[9]
  LEL: 10 mg/L
  LOAEL: > 10 ppm
  NEL: 2.5 ppm
  NOAEL: ≥ 10 ppm

## Cc1[nH]n(C)c(=O)c1C(=O)c1ccc(C(F)(F)F)cc1S(C)(=O)=O [Pyrasulfotole]
[10]; [36]
  LEL: 3.68 mg/kg/day
  LOAEL: > 354 mg/kg/day
  NEL: < 3.68 mg/kg/day
  NOAEL: ≥ 354 mg/kg/day
[10]; [37]
  LOAEL: 2.5 mg/kg/day
  NOAEL: < 2.5 mg/kg/day
[10]; [38]
  LEL: 2.5 mg/kg/day
  NEL: < 2.5 mg/kg/day
[11]; [39]
  LEL: 100 mg/kg/day
  LOAEL: 100 mg/kg/day
  NEL: 10 mg/kg/day
  NOAEL: 10 mg/kg/day
[11]; [40]
  LEL: 100 mg/kg/day
  LOAEL: 100 mg/kg/day
  NEL: 10 mg/kg/day
  NOAEL: 10 mg/kg/day
[12]; [41]
  LEL: 75 mg/kg/day
  LOAEL: 75 mg/kg/day
  NEL: 10 mg/kg/day
  NOAEL: 10 mg/kg/day
[12]; [18]
  LEL: 250 mg/kg/day
  LOAEL: 250 mg/kg/day
  NEL: 75 mg/kg/day
  NOAEL: 75 mg/kg/day

## CCCCSP(=O)(SCCCC)SCCCC [Tribufos]
[13]; [42]
  LEL: 0.2 mg/kg/day
  LOAEL: 0.2 mg/kg/day
  NEL: < 0.2 mg/kg/day
  NOAEL: < 0.2 mg/kg/day
[13]; [43]
  LEL: 1.8 mg/kg/day
  LOAEL: > 16.8 mg/kg/day
  NEL: 0.2 mg/kg/day
  NOAEL: ≥ 16.8 mg/kg/day
[14]; [44]
  LEL: 1.64 mg/kg/day
  LOAEL: 1.64 mg/kg/day
  NEL: < 1.64 mg/kg/day
  NOAEL: < 1.64 mg/kg/day
[14]; [45]
  LEL: 1.64 mg/kg/day
  LOAEL: 1.64 mg/kg/day
  NEL: < 1.64 mg/kg/day
  NOAEL: < 1.64 mg/kg/day
[15]; [42]
  LEL: 0.4 mg/kg/day
  LOAEL: 0.4 mg/kg/day
[15]; [46]
  NEL: 0.1 mg/kg/day
  NOAEL: 0.1 mg/kg/day
[15]; group: systemic, systemic / hematology / erythrocyte (rbc) count differential / erythrocyte (rbc)
  LOAEL: 1.7 mg/kg/day
[15]; [47]
  LEL: 1.7 mg/kg/day
  NEL: 0.4 mg/kg/day
  NOAEL: 0.4 mg/kg/day

## CC(=O)OCCOCCOCCOC(C)=O [Triethylene glycol diacetate]
[16]; [48]
  LEL: 4000 mg/kg/day
  LOAEL: > 4000 mg/kg/day
  NEL: 2000 mg/kg/day
  NOAEL: ≥ 4000 mg/kg/day
[16]; group: parental, systemic / organ weight / kidney / relative to body weight
  NEL: 2000 mg/kg/day
[16]; [49]
  LEL: 4000 mg/kg/day
  LOAEL: > 4000 mg/kg/day
  NOAEL: ≥ 4000 mg/kg/day
